According to publication PMC8952364, “Polyphenols as Inhibitors of Antibiotic Resistant Bacteria—Mechanisms Underlying Rutin Interference with Bacterial Virulence” (Pharmaceuticals, 2022):
≈ marks a conversion by molar mass, not a printed value.

Legend:
[1] = system: S. infantis 1371/1; experiment: Antimicrobial microdilution assay (MIC/MBC); format: cell-based, Salmonella Infantis; conditions: Salmonella enterica, 1371/1
Method in brief: (§1)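 Polyphenols 0.0039–1 mg/mL, stocks in 30% ethanol; inoculum 0.5 McFarland diluted twenty-fold, mixed 1:10; 24 h, 37 °C. MIC = no visible growth (binocular microscope). Streptomycin positive control, ethanol negative control; triplicate.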

[2] = system: MRSA IBRS MRSA 011; experiment: Catheter biofilm inhibition model; format: cell-based, Staphylococcus aureus; conditions: even in the sub-MIC concentration, 24 h
Protocol: The method was performed as described previously, with some modifications. Sterile silicon 16-mm Romed catheters (Van Oostveen Medical, Wilnis, The Netherlands) were cut into 1 cm lengths and placed in 24-well plates (Sarstedt, Nümbrecht, Germany). P. aeruginosa IBRS P001 and MRSA in TSB with 2% glucose (Torlak, Belgrade, Serbia) and rutin (0.25–1 MIC) were added for the inhibition assay. After incubation (37 °C, 24 h), the catheters were washed with PBS and transferred to 1.5 mL tubes. PBS was added and tubes were vortexed vigorously. The samples were diluted and seeded onto Plate Count Agar (HiMedia Laboratories, Mumbai, India). After being incubated at 37 °C for 24 h, the CFU (colony forming units) count was determined and the inhibition percentage relative to the untreated control was calculated.

[3] = system: P. aeruginosa IBRS P001 biofilm; experiment: Quantification of eDNA (biofilm formation); format: cell-based; conditions: Pseudomonas aeruginosa, IBRSP001BIOFILM; 0.25 MIC, 0.125 mg/mL; read-out: inhibition of eDNA levels
Protocol: The quantity of eDNA was determined as previously described, with some modifications. […] Subsequently, the planktonic cells were removed, and the wells were washed with PBS. TE buffer (Tris-EDTA buffer solution) was added to the wells and content was mixed vigorously by pipetting. The samples were transferred to 1.5 mL tubes and centrifuged at 10,000× g for 10 min. After removal of the supernatant, the pellet was suspended in a TE buffer by vortexing. Absorbance of the supernatant (260 nm) was measured after centrifugation at 10,000× g for 15 min. We calculated the inhibition percentage of eDNA relative to an untreated control. The solvent treated sample was used as the control.

[4] = system: P. aeruginosa IBRS P001; experiment: Catheter biofilm eradication model (24 h old biofilm); format: cell-based, Pseudomonas aeruginosa
Protocol: For the catheter biofilm eradication assay, P. aeruginosa and MRSA were incubated in TSB with 2% glucose with 1 cm long catheters in 24-well plates at 37 °C for 24 h. […] Subsequently, the catheters were washed and treated, as described above.

[5] = system: P. aeruginosa IBRS P001; experiment: Bacterial adhesion to HaCaT cells; format: cell-based, Pseudomonas aeruginosa
Protocol: HaCaT cells were grown until confluence in 24-well plates with an adhesive bottom. The medium was removed and DMEM without FBS containing the rutin (MIC and 0.5 MIC) was added. The samples were incubated at 37 °C for 15 min, and bacteria (P. aeruginosa IBRS P001 and MRSA IBRS MRSA 011) were added. After incubation at 37 °C for 1 h, the cells were washed three times with DMEM without FBS and lyzed with 1 mL of 1% (v/v) Tween-20 (SigmaAldrich, Germany) at 37 °C for 30 min. Afterwards, dilutions of the bacterial suspension in each well were made and seeded on Plate Count Agar plates. The number of CFU was determined after incubation at 37 °C for 18 h, and the percentage of adhered bacterial cells was calculated following the equation:% (adhesion relative to the control) = 100 × CFU (treated)/CFU (control)
With CFU (treated) representing the number of CFUs after the treatment of cells with rutin and CFU (control) representing the number of bacterial CFUs in the untreated sample. The solvent treated sample was used as the control.

[6] = system: A. baumannii 6077/12; experiment: Antimicrobial microdilution assay (MIC/MBC); format: cell-based, Acinetobacter baumannii; conditions: Acinetobacter baumannii, 6077/12
Method in brief: as §1

[7] = system: A. baumannii S2/2; experiment: Antimicrobial microdilution assay (MIC/MBC); format: cell-based, Acinetobacter baumannii; conditions: Acinetobacter baumannii, S2/2
Method in brief: as §1

[8] = system: HaCaT cells; experiment: Cytotoxicity in HaCaT cell line (crystal violet assay); format: cell-based, human; conditions: Homo sapiens, HaCaT, 24 h, read-out: IC50 (compound concentration that inhibited 50% of the cell growth)
Method in brief: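 HaCaT keratinocytes seeded 1 × 10^4 cells/well 24 h before treatment, then exposed to polyphenols for 24 h. Viable cells stained with crystal violet, absorbance at 590 nm. IC50 in μg/mL, triplicate with three readings each, mean ± SD.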

[9] = system: A. xylosoxidans 37F; experiment: Antimicrobial microdilution assay (MIC/MBC); format: cell-based, Achromobacter xylosoxidans; conditions: Achromobacter xylosoxidans, 37F
Method in brief: as §1

[10] = system: E. coli IMD989; experiment: Antimicrobial microdilution assay (MIC/MBC); format: cell-based, Escherichia coli; conditions: Escherichia coli, IMD989
Method in brief: as §1

[11] = system: E. coli IBRS E003; experiment: Antimicrobial microdilution assay (MIC/MBC); format: cell-based, Escherichia coli; conditions: Escherichia coli, IBRSE003
Method in brief: as §1

[12] = subcultivation, 24 h at 37 °C, read-out: MBC

C[C@@H]1O[C@@H](OC[C@H]2O[C@@H](Oc3c(-c4ccc(O)c(O)c4)oc4cc(O)cc(O)c4c3=O)[C@H](O)[C@@H](O)[C@@H]2O)[C@H](O)[C@H](O)[C@H]1O [Rutin, rutin]
MIC ([1]; 37 °C, 24 h, read-out: MIC): 1000 µg/mL (≈ 1640 µM) | MBC [1, 12]: 1000 µg/mL (≈ 1640 µM) | catheter biofilm forming ability, in words [2]: significantly reduced | inhibition at 125 µg/mL [3]: > 50% | catheter biofilm eradicated ([4]; 2 MBC, 24 h old biofilm): 73.7% | biofilm cells remained viable after the treatment ([4]; 24 h old catheter biofilm, concentration not printed (MBC-4MBC tested, probably 4 MBC)): 10.9% | reduction of CFU adhered to human keratinocytes ([5]; 0.5 MIC, 0.25 mg/mL): 25% | reduction of CFU adhered to human keratinocytes ([5]; rutin MIC): 51% | MIC ([6]; 37 °C, 24 h, read-out: MIC): 500 µg/mL (≈ 819 µM) | MBC [6, 12]: 500 µg/mL (≈ 819 µM) | MIC ([7]; 37 °C, 24 h, read-out: MIC): 500 µg/mL (≈ 819 µM) | MBC [7, 12]: 500 µg/mL (≈ 819 µM) | IC50 [8]: > 1000 µg/mL | MIC ([9]; 37 °C, 24 h, read-out: MIC): 500 µg/mL (≈ 819 µM) | MBC [9, 12]: 1000 µg/mL (≈ 1640 µM) | MIC ([10]; 37 °C, 24 h, read-out: MIC): 1000 µg/mL (≈ 1640 µM) | MBC [10, 12]: 1000 µg/mL (≈ 1640 µM) | MIC ([11]; 37 °C, 24 h, read-out: MIC): > 1000 µg/mL | MBC [11, 12]: > 1000 µg/mL
